Reference: ChEMBL document CHEMBL1201862, “PubChem BioAssay data set” (2004)
Activity calls are given as the source filed them.

Experiments:
[1] = A Cell Based Secondary Assay To Explore Cytotoxicity of Compounds that Sensitize Mycobacterium Tuberculosis to Beta-Lactam Antibiotics.; format: functional
cells [2] = test: cells
[3] = HEp-2 cell cytotoxicity, dose response, cytotoxicity control for RSV inhibitor project, HTS (AID 2410); format: functional; conditions: human respiratory syncytial virus
[4] = target: T1, DNA repair protein RAD52 homolog (Homo sapiens, UniProt P43351); format: functional, biochemical
T1 sequence (P43351 whole entry): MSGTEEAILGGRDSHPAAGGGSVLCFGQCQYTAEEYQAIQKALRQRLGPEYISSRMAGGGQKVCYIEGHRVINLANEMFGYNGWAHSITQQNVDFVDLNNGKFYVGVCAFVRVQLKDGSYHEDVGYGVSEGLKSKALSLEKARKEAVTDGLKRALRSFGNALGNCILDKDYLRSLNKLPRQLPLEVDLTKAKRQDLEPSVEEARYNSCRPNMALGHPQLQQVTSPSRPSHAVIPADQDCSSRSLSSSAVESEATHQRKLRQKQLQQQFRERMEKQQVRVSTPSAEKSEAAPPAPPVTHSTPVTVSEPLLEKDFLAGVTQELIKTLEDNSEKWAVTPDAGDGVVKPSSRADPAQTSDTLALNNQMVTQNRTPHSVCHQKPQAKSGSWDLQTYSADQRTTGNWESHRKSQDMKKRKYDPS

Paired box protein Pax-8 = Paired box protein Pax-8 (Homo sapiens, UniProt Q06710); test: inhibitors of PAX8-driven TPO luciferase reporter, dose response, RMG-I cells, cherry-pick (AID 687027); format: functional, cell-based;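 further: luciferase reporter driven by Pax8 target thyroperoxidase promoter measured by SteadyGlo luminescence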
Chain of Paired box protein Pax-8 (Q06710 whole entry): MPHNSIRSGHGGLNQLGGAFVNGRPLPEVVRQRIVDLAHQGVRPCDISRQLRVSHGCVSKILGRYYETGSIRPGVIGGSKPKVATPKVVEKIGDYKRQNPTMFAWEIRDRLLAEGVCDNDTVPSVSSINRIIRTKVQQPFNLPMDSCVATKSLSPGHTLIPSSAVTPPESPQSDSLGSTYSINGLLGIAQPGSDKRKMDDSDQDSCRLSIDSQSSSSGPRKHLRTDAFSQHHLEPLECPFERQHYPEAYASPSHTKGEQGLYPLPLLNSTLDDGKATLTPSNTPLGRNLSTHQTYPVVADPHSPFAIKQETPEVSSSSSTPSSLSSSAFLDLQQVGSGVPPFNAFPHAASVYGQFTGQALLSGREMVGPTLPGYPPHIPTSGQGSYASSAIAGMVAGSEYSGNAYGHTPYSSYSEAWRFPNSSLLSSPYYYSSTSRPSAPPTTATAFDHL

[5] = target: T2, Microphthalmia-associated transcription factor (Homo sapiens, UniProt O75030); test: TRPM1 promoter luciferase signal decrease, dose response, MITF inhibitor project, cell-based, SK-MEL-5, cherry-picked, set 3 (AID 493073); format: functional
T2 sequence (O75030 whole entry): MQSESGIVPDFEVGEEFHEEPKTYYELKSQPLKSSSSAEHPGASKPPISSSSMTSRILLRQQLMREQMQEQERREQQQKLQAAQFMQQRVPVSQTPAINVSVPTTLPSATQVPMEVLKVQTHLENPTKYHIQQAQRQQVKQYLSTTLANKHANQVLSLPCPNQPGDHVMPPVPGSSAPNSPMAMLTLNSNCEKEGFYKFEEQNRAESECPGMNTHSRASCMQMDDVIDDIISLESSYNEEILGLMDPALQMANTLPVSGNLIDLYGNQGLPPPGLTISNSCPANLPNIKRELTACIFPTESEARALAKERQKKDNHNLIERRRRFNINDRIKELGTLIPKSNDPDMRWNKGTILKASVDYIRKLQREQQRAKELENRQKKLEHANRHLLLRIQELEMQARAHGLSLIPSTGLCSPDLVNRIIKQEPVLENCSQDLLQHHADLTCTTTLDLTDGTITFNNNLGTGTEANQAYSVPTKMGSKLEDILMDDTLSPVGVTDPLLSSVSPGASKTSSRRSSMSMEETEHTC

[6] = target: T3, Replicative DNA helicase DnaB (Mycobacterium tuberculosis, UniProt P9WMR3); test: DnaB intein splicing inhibitors, dose response, biochemical, cell-free fluorescence (AID 449749); format: functional
T3 sequence (P9WMR3 whole entry): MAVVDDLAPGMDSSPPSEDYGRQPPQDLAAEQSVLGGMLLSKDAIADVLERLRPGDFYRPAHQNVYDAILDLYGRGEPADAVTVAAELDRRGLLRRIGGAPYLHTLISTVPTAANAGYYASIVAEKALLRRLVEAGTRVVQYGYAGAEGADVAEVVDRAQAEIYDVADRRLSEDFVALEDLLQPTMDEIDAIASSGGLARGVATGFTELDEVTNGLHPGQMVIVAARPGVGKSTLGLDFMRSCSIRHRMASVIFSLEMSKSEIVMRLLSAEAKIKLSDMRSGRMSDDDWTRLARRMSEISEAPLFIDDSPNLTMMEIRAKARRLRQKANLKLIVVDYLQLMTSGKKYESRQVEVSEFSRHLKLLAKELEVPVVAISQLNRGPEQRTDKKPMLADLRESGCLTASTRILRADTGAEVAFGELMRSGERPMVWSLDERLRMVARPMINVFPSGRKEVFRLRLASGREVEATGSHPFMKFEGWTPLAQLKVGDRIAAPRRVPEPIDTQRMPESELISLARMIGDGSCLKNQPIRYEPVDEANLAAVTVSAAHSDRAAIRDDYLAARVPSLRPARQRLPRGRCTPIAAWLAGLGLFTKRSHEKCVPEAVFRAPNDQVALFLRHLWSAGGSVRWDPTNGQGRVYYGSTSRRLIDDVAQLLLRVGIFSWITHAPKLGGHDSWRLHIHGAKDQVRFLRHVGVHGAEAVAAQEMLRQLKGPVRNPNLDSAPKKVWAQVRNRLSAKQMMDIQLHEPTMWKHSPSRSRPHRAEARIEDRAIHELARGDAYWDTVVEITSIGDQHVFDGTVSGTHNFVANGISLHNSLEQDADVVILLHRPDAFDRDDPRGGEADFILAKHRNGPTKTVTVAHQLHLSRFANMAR

[7] = HeLa cell cytotoxicity, dose response, cytotoxicity control for MgcRacGAP inhibitor project (AID 624300); format: functional
Nonstructural protein 1 = Nonstructural protein 1 (Influenza A virus, UniProt Q194T2); format: functional, Influenza A virus (A/California/07/2009(H1N1))
Chain of Nonstructural protein 1 (Q194T2 whole entry): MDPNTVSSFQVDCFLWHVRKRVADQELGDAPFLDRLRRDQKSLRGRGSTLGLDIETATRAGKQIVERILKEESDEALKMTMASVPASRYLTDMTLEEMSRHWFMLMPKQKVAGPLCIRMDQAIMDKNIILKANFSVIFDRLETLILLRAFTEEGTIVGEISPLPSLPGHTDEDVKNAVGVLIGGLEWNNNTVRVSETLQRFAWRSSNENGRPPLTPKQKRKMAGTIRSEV

[8] = target: T4, Rac GTPase-activating protein 1 (Homo sapiens, UniProt Q9H0H5); test: MgcRacGAP GTPase-activating activity inhibitors, confirmation, biochemical, ADP Hunter fluorescence, primary and confirmatory (AID 624330); format: functional
T4 sequence (Q9H0H5 whole entry): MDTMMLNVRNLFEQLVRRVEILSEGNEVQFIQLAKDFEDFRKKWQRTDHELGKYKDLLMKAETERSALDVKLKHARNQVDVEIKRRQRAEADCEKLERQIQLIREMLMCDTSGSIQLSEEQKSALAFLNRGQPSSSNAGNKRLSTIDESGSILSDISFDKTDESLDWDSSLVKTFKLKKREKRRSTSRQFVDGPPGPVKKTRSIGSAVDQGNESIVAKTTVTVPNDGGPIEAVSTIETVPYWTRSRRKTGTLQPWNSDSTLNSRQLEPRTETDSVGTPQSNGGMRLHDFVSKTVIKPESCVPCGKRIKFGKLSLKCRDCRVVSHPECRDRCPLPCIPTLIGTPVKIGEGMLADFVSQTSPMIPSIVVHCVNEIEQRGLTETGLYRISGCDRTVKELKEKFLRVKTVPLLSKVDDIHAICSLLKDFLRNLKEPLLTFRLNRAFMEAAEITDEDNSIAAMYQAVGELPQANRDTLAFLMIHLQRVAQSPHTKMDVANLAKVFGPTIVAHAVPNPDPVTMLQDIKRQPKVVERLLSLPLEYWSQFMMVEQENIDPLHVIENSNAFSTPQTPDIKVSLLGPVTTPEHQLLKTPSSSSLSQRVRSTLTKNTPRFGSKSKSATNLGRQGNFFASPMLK

Large T antigen = Large T antigen (Simian virus 40, UniProt P03070); format: functional, Betapolyomavirus macacae;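 further: Confirmatory-stage PubChem screen for compounds that inhibit SV40 T antigen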
Chain of Large T antigen (P03070 whole entry): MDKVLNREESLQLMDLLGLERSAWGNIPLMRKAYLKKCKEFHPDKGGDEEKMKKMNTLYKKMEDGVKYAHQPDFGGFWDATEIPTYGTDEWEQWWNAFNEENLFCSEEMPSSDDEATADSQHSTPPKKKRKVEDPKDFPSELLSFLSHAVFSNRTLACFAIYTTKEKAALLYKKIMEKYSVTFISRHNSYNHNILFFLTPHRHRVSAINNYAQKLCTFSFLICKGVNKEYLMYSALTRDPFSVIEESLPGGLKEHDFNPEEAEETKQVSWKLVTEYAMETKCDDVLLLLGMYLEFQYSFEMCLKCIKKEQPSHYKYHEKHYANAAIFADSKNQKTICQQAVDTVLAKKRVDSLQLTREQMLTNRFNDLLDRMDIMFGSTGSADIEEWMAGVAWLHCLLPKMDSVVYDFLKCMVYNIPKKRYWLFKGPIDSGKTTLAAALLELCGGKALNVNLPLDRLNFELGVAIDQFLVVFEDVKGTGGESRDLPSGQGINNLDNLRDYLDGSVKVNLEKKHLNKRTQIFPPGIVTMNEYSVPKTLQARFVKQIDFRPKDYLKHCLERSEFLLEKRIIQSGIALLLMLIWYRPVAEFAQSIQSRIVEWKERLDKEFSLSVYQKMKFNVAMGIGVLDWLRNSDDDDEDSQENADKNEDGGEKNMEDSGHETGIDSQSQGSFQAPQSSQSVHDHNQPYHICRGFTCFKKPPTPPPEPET

Protein RecA = target: T5, Protein RecA (Mycobacterium tuberculosis, UniProt P9WHJ3); test: Fluorescence Cell-Free Homogeneous Dose Retest to Identify Inhibitors of RecA-Intein Splicing Activity. [Related pubchem assays (depositor defined):AID2097, AID2223, AID489010, AID492950]; format: functional
T5 sequence (P9WHJ3 whole entry): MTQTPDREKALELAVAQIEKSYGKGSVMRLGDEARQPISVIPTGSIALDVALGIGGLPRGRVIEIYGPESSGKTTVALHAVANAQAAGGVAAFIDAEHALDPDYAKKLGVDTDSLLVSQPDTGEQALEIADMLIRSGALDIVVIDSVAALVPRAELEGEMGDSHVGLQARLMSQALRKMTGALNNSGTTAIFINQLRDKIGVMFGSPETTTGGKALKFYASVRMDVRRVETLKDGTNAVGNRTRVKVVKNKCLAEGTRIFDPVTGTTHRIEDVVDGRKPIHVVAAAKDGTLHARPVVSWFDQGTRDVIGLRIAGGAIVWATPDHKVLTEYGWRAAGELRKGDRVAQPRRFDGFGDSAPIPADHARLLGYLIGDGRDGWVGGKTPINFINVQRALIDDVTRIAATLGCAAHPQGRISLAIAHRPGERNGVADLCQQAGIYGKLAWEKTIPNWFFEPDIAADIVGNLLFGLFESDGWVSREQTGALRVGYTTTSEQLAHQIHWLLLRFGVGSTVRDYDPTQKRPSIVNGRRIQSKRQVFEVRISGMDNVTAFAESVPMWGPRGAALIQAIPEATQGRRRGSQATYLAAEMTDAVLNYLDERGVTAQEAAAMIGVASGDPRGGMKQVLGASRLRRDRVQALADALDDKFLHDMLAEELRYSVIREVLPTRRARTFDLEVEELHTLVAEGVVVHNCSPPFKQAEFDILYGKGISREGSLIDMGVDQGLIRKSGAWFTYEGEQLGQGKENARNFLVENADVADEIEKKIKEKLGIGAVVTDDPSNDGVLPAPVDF

[9] = target: Eukaryotic translation initiation factor 4E (Mus musculus, UniProt P63073); test: eIF4E–eIF4G protein interaction inhibitors, dose response, biochemical, TR-FRET (AID 855); format: functional;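 further: potency for disrupting eIF4E binding to eIF4GI seen as loss of FRET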
Chain of Eukaryotic translation initiation factor 4E (P63073 whole entry): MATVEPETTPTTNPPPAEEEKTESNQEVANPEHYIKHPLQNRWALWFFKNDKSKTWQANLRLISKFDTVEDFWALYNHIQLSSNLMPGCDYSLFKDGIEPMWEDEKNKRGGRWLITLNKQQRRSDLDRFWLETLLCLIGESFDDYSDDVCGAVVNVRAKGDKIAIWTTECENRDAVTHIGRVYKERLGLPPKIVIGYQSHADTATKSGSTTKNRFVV

[10] = target: T6, Ubiquitin-conjugating enzyme E2 N (Homo sapiens, UniProt P61088); format: functional;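 further: Dose-response confirmation in a TR-FRET assay detecting UBC13-driven polyubiquitin chain formation, inhibition measured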
T6 sequence (P61088 whole entry): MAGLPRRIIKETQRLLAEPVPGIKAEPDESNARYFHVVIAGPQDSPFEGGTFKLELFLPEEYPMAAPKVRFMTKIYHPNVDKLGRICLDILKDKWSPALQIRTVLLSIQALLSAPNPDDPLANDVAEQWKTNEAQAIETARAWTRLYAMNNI

[11] = NIH-3T3 fibroblast cytotoxicity, dose response, cytotoxicity control, cell-based, fluorescence, Alamar Blue, secondary assay (AID 2327); format: functional;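 further: NIH-3T3 mouse fibroblasts cultured with fluconazole at 8 µg/mL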
[12] = target: Heat shock protein HSP 90-alpha (Homo sapiens, UniProt P07900); format: functional, organism-based
cells [13] = format: functional, cell-based
cells [14] = format: functional, cell-based; remark: listed apart in the source
[15] = C. albicans growth with fluconazole, confirmation, fluorescence, retest (AID 2467); format: functional, cell-based
[16] = StAR promoter reporter inhibition counter-screen, dose response, counter-screen for LRH-1 inverse agonist project, cell-based, luminescence, luciferase reporter (AID 651969); format: functional
Steroidogenic factor 1 = Steroidogenic factor 1 (Homo sapiens, UniProt Q13285); test: Counterscreen for inverse agonists of the liver receptor homolog-1 (LRH-1; NR5A2): Luminescence-based cell-based high throughput dose response assay to identify inverse agonists of the Steroidogenic Factor 1 Nuclear Receptor (SF1; NR5A1).; format: functional
Chain of Steroidogenic factor 1 (Q13285 whole entry): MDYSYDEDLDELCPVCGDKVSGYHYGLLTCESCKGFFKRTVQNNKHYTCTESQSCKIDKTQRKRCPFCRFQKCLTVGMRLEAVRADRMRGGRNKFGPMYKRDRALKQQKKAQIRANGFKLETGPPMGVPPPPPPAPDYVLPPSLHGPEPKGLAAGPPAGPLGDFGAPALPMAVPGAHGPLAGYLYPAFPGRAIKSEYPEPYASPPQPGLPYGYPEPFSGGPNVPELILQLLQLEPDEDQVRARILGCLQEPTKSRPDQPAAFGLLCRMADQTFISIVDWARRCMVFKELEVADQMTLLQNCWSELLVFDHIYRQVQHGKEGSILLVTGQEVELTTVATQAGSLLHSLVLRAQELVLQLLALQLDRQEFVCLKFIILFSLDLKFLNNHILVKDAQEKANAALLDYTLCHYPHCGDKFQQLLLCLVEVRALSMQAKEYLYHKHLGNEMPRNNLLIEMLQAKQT

[17] = target: Nuclear receptor subfamily 5 group A member 2 (Homo sapiens, UniProt O00482); format: functional, cell-based;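 further: HEK293T cells transfected with LRH-1 and a StAR promoter luciferase reporter; potency for inhibitors that lower LRH-1 driven reporter light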
Chain of Nuclear receptor subfamily 5 group A member 2 (O00482 whole entry): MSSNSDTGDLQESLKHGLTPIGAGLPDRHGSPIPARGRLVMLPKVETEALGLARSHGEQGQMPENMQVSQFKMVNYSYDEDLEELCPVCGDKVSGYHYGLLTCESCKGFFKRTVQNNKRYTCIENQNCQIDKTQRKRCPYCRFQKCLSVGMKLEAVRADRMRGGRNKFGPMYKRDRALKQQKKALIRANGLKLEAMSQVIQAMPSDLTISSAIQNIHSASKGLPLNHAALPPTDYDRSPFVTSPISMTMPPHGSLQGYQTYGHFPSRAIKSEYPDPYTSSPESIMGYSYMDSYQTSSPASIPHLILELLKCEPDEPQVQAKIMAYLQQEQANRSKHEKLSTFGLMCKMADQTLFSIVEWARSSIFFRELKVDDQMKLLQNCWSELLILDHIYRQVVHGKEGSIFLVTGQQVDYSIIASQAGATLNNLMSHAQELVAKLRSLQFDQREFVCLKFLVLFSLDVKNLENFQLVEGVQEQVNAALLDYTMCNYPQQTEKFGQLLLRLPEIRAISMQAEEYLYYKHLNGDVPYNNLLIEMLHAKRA

[18] = target: DNA dC->dU-editing enzyme APOBEC-3G (Homo sapiens, UniProt Q9HC16); format: functional;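 further: Dose-response counterscreen measuring inhibition of APOBEC3G DNA deaminase activity, run while confirming APOBEC3A inhibitors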
Chain of DNA dC->dU-editing enzyme APOBEC-3G (Q9HC16 whole entry): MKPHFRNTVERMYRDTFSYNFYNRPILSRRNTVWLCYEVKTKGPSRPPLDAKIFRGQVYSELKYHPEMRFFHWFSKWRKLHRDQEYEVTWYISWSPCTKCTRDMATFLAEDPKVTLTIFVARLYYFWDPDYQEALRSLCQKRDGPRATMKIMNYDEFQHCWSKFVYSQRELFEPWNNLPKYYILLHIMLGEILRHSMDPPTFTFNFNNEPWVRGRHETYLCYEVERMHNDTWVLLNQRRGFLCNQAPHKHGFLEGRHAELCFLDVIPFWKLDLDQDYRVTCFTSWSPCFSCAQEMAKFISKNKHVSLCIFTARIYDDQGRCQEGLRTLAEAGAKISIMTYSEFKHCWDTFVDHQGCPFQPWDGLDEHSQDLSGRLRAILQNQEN

[19] = target: DNA dC->dU-editing enzyme APOBEC-3A (Homo sapiens, UniProt P31941); test: Dose Response confirmation of small molecule APOBEC3A DNA Deaminase Inhibitors via a fluorescence-based single-stranded DNA deaminase assay. [Related pubchem assays (depositor defined):AID493011, AID493024]; format: functional
Chain of DNA dC->dU-editing enzyme APOBEC-3A (P31941 whole entry): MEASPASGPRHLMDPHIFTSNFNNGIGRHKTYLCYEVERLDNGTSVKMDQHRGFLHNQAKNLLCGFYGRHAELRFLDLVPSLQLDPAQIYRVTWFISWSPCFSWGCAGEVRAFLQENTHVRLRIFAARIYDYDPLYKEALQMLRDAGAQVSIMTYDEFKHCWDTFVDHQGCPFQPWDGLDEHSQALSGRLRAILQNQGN

With `Cc1cccc(C)c1-n1c(C)cc(/C=C2\C(=O)NN(c3ccccc3)C2=O)c1C` the CC50 [1] was > 40 µM (active), the IC50 (cells [2]) was 7.55 µM (active) and the CC50 [3] was 36.6 µM (active).
In the case of `CCN(CC)CC(O)Cn1c(C)c(-c2ccccc2)c2cc([N+](=O)[O-])ccc21` (centres undefined), the AC50 [4] is reported as 8.3 µM (active).
For `CN(C)CCOc1ccc2c(c1)C(=O)C(=Cc1ncc([N+](=O)[O-])n1C)C2`, the AC50 [4] was 7.08 µM (active) and the AC50 (Paired box protein Pax-8) was 1.89 µM (active).
For `COC1=C(Nc2ccc(O)cc2)C(=O)c2ccccc2C1=O`, the AC50 [5] was 5.14 µM (active), the AC50 [6] was > 380 µM (inactive) and the CC50 [7] was 56.8 µM (active). For the same compound, the IC50 (Nonstructural protein 1) was 24.7 µM (active), the IC50 [8] was 24.4 µM (active) and the IC50 (Large T antigen) was 9.88 µM (active). For the same compound, the EC50 (Protein RecA) was 1.16 µM (active).
For `CC(C)c1ccc(CN2CCC(C(=O)NCc3cccnc3)CC2)cc1`, the IC50 [9] was > 64 µM (inactive).
With `NC1=NC[C@H](Cc2ccc(O)cc2)N1CCC12CC3CC(CC(C3)C1)C2` the AC50 [4] was 18.5 µM (active), the IC50 [10] was > 20 µM (inactive) and the EC50 [11] was > 160 µM (inactive).
With `O=C(Nc1cccc(Cl)c1N1CCOCC1)c1ccc([N+](=O)[O-])o1` the CC50 [1] was > 40 µM (active).
For `COc1ccc2c(c1O)-c1cccc3c1[C@@H](C2)N(C)CC3`, the AC50 [4] was 10.7 µM (active).
For `CCN1/C(=C/c2ccc3cc(C)ccc3[n+]2CC)Sc2cc(C)ccc21`, the CC50 [7] was 23.1 µM (active), the IC50 [8] was 80.4 µM (active) and the AC50 [12] was 3.75 µM (active).
For `CCCS(=O)(=O)N1CCN(S(=O)(=O)c2ccccc2)CC1`, the IC50 [9] was > 64 µM (inactive).
For `CCN(CC)S(=O)(=O)c1ccc(N/N=C(\C)c2ccc(OC)cc2O)nc1`, the EC50 (cells [13]) was 29.1 µM (active), the CC50 [1] was 3.86 µM (active) and the EC50 (cells [14]) was > 350 µM (not active). The EC50 [15] was > 38 µM (not active) and the EC50 [11] was 5.47 µM (active).
In the case of `NS(=O)(=O)c1ccc(O)c(NC(=O)c2ccc([N+](=O)[O-])o2)c1`, the CC50 [1] is reported as > 40 µM (active), the IC50 [16] is reported as 35.9 µM (inactive) and the IC50 (Steroidogenic factor 1) is reported as 1.52 µM (active). For the same compound, the IC50 [17] was 4.16 µM (active).
With `O=C(NN1CCOCC1)c1cc(-c2ccc(Br)cc2)nc2ccccc12` the IC50 [9] was > 64 µM (inactive).
For `Cc1ccc(C(=O)CSc2ncnc3sc4c(c23)CCCC4)cc1`, the IC50 [9] was > 64 µM (inactive).
With `O=C(N/N=C/c1cc([N+](=O)[O-])ccc1O)C1CC1` the CC50 [1] was > 40 µM (active).
For `COc1ccc(C(=O)OCC[N+]2(C)CCOCC2)cc1`, the IC50 [9] was 50 µM (inactive), the IC50 [18] was 3.47 µM (active) and the IC50 [19] was 1.97 µM (active).
For `COc1cc2nc(N(CCCN(C)C)C(=O)c3ccc(C(=O)c4ccccc4)cc3)sc2cc1OC`, the AC50 [4] was 15.8 µM (active).
